This is an account of results in patent US20240066037A1 (priority 2020, published 2024).

In data set [1] the test system is SARS-CoV-2 (USA_WA1/2020). The experiment in a line: microbe, parasite or virus in culture. Format: cell-based. To be noted: for IC50: Severe acute respiratory syndrome coronavirus 2, Vero C1008, 72 h, read-out: Antiviral IC50.
Another data set has as its system SARS-CoV-2. Type of data set: cell-based.
The subject of a further data set is MERS (EMC/2012). The data set can be described thus: microbe, parasite or virus in culture. The settings on record: for IC50: Middle East respiratory syndrome-related coronavirus. Type of data set: cell-based.
The subject of the next data set is SARS-CoV-1 (Toronto 2). The data set can be described thus: microbe, parasite or virus in culture. Type of data set: cell-based. To be noted: for IC50: Severe acute respiratory syndrome coronavirus, Vero C1008, 72 h, read-out: Antiviral IC50.
Data set [2] in a line: in vitro. The settings on record: African green monkey.
The test system of data set [3] is SARS-CoV-2 (βCoV/KOR/KCDC03/2020). The experiment in a line: microbe, parasite or virus in culture. To be noted: for IC50: Severe acute respiratory syndrome coronavirus 2, Calu-3, 24 h. Type of data set: cell-based.
Data set [4] addresses Cat K (Macaca fascicularis, UniProt P61276). The settings on record: cited from earlier work.
Data set [5] addresses Cat K (Mus musculus, UniProt P55097). The settings on record: cited from earlier work.
Data set [6] concerns the target Cat L. To be noted: cited from earlier work.
A further data set deals with Cat D (Homo sapiens, UniProt P07339). To be noted: cited from earlier work.
The next data set has as its target Calpain. To be noted: cited from earlier work.
For another data set, the system named is MERS-CoV. The experiment in a line: microbe, parasite or virus in culture. Type of data set: cell-based. To be noted: Middle East respiratory syndrome-related coronavirus, MRC5.
Data set [7] has as its target Cat V (L2). The settings on record: cited from earlier work.
The subject of another data set is NiV. The experiment in a line: organism not typed. Type of data set: cell-based. To be noted: HeLa.
In the next data set the target is Cat G (Homo sapiens, UniProt P08311). To be noted: cited from earlier work.
Data set [8] has as its target Cat L (Rattus norvegicus, UniProt P07154). The settings on record: cited from earlier work.
A further data set deals with Cat S (Rattus norvegicus, UniProt Q02765). The settings on record: cited from earlier work.
The next data set deals with EBOV (Kikwit). The experiment in a line: microbe, parasite or virus in culture. Type of data set: cell-based. To be noted: Zaire ebolavirus, Vero.
Another data set deals with Caspase 3-4. The settings on record: cited from earlier work.
The subject of a further data set is WNV. The data set can be described thus: microbe, parasite or virus in culture. Format: cell-based. To be noted: West Nile virus, HeLa.
Data set [9] can be described thus: in vitro. The settings on record: Syrian hamster.
For data set [10], the target named is Cat V (L2) (Homo sapiens, UniProt O60911). The settings on record: cited from earlier work.
Another data set relates to LASV. The experiment in a line: organism not typed. Type of data set: cell-based. The settings on record: HeLa.
For data set [11], the target named is Cat L (Mus musculus, UniProt P06797). To be noted: cited from earlier work.
Data set [12] concerns EBOV (Makona). The data set can be described thus: microbe, parasite or virus in culture. Format: cell-based. The settings on record: Zaire ebolavirus, HeLa.
In a further data set the test system is HTNV. The data set can be described thus: organism not typed. Type of data set: cell-based. The settings on record: Vero.
For the next data set, the system named is EBOV. The settings on record: rhesus monkey, in vivo.
Another data set relates to MARV. The experiment in a line: organism not typed. Format: cell-based. To be noted: HeLa.
Data set [13] deals with EBOV (Makona). The experiment in a line: microbe, parasite or virus in culture. Type of data set: cell-based. To be noted: Zaire ebolavirus, Vero.
[14] abbreviates: Vero C1008, read-out: Antiviral IC50 (std-incubation).
Setting [15] is: Vero C1008, read-out: pre-incubation IC50.

The structures appear in SMILES notation. Where two headings read alike, the source gives them in different places.

Cat V (L2) (Homo sapiens, UniProt O60911), sequence (O60911 114-334): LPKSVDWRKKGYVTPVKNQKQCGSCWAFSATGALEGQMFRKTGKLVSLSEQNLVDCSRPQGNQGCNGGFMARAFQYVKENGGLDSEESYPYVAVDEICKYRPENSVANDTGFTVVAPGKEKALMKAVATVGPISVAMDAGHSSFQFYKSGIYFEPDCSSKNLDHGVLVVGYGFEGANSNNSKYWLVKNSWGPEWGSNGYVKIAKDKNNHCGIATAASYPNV
Cat L (Rattus norvegicus, UniProt P07154), sequence (P07154 114-334): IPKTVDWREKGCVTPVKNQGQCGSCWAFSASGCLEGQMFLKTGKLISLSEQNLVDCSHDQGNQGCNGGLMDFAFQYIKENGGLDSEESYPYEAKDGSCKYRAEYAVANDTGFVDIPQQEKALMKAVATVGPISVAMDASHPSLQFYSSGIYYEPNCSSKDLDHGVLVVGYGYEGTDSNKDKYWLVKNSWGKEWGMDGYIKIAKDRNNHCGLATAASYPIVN
Cat K (Macaca fascicularis, UniProt P61276), sequence (P61276 115-329): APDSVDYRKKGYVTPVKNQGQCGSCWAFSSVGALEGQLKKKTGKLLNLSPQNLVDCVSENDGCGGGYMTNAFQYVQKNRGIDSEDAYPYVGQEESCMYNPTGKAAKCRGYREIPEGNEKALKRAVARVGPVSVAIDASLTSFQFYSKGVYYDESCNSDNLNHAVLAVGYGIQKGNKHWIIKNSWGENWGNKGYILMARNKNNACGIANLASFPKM
Cat S, sequence (Q02765 113-330): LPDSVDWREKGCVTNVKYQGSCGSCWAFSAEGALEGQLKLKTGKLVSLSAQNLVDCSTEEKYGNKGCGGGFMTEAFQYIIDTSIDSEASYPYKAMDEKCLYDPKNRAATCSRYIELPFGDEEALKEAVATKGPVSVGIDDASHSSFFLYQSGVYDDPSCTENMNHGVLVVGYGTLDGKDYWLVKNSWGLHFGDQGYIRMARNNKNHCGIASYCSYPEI
Cat K (Mus musculus, UniProt P55097), sequence (P55097 115-329): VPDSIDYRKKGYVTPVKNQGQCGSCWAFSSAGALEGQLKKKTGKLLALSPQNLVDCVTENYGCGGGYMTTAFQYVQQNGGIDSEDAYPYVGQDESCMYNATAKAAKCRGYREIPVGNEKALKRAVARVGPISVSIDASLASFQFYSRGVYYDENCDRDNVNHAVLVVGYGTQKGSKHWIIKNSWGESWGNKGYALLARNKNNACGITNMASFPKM
Cat D, sequence (P07339 65-412): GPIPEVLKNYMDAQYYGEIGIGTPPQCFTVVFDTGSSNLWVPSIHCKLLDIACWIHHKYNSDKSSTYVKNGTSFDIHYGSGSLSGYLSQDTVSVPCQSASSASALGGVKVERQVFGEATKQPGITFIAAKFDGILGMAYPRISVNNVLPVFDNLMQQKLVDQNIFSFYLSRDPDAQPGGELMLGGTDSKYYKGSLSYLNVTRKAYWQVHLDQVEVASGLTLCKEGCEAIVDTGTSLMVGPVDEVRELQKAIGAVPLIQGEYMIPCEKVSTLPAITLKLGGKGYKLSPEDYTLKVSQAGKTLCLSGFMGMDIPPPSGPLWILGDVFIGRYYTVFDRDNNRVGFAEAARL
Cat G, sequence (P08311 21-244): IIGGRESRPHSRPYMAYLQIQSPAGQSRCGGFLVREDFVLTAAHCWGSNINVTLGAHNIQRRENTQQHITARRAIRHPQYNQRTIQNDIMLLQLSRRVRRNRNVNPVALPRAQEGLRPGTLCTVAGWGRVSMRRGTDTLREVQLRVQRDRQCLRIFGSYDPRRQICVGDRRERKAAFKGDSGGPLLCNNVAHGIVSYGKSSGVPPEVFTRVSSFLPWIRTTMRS
Cat L (Mus musculus, UniProt P06797), sequence (P06797 114-334): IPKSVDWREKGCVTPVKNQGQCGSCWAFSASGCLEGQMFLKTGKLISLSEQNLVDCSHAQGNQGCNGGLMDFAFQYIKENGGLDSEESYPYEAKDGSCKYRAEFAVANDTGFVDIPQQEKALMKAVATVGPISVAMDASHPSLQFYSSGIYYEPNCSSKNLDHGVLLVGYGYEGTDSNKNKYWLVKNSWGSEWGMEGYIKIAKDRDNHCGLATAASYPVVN

With `CN(C)C(=O)COC(=O)Cc1ccc(OC(=O)c2ccc(NC(=N)N)cc2)cc1` [camostat], the “Selectivity Index CC50/IC50” value (in data set [1]; with MERS (EMC/2012); in the data set on SARS-CoV-1 (Toronto 2)) was greater than 1 throughout. Besides, the “antiviral activity” value (in [1]; with MERS (EMC/2012); with SARS-CoV-1 (Toronto 2)) was “no antiviral activity” throughout. The IC50 (as a rule, the point on the concentration scale where inhibition reaches its midpoint) in data set [1] is greater than 50000 nM; in the data set with MERS (EMC/2012) (setting [14]) it was greater than 50000 nM; in the data set on MERS (EMC/2012) (setting [15]), greater than 50000 nM; in the data set on SARS-CoV-1 (Toronto 2), greater than 50000 nM; in data set [3] (read-out: Exp. 1 IC50), 160 nM; in data set [3] (read-out: Exp. 2 IC50), 290 nM. For the same molecule, the “SARS-CoV-2 antiviral activity, titer by plaque assay (FIG. 8A, words)” value with SARS-CoV-2 is given as “dose-dependent SARS-CoV-2 antiviral activity”. The molecule also had a CC50 in “in vitro [2]” greater than 50000 nM. Moreover, in data set [3], the “SARS-CoV-2 activity in Calu-3 cells, expression of N protein” value is reported as “reduced the expression of N protein”.
As to `CCN(CC)CCCC(C)Nc1ccnc2cc(Cl)ccc12` (centres unmarked) [Chloroquine], the IC50 in data set [1] worked out at 3710 nM; in the data set on MERS (EMC/2012) (setting [14]), 21000 nM; in the data set on SARS-CoV-1 (Toronto 2) it was 2020 nM. In addition, the CC50 in “in vitro [2]” was greater than 30000 nM.
In the case of `CC(C)C[C@H](NC(=O)c1cc2ccccc2o1)C(=O)N[C@H]1CC[C@@H](C)N(S(=O)(=O)c2ccccn2)CC1=O` [relacatib, N-((2S)-4-methyl-1-(((4S,7R)-7-methyl-3-oxo-1-(pyridin-2-ylsulfonyl)azepan-4-yl)amino)-1-oxopentan-2-yl)benzofuran-2-carboxamide], the Ki on Cat K [4] is 0.04 nM; at Cat K [5], 15 nM; at Cat L [6], 0.3 nM; on Cat D, greater than 10000 nM; on Calpain it was 310 nM; at Cat V (L2) [7], 0.7 nM. The Ki at Cat G is greater than 30000 nM; at Cat L [8], 0.2 nM; on Cat S, 5.5 nM; on Caspase 3-4 it was greater than 10000 nM; on Cat V (L2) [10] it was 0.05 nM; on Cat V (L2) [10] (read-out: Ki, app) it was 0.053 nM. Moreover, the Ki on Cat L [11] was 0.2 nM. Also, the IC50 is 20 nM in data set [1]; 600 nM with MERS (EMC/2012) (setting [14]); 680 nM in the data set on MERS (EMC/2012) (setting [15]); 230 nM in the data set with SARS-CoV-1 (Toronto 2); greater than 50000 nM in data set [3] (read-out: Exp. 1 IC50); greater than 50000 nM in [3] (read-out: Exp. 2 IC50). Besides, the EC50 – broadly, the concentration at which the effect is half-maximal – was 40 nM in the data set on MERS-CoV; 15 nM in the data set with NiV; 2890 nM in the data set on EBOV (Kikwit); greater than 100000 nM in the data set on WNV; greater than 100000 nM in the data set with LASV; 360 nM in the data set with EBOV (Makona) [12]. For the same molecule, the EC50 in the data set with HTNV was greater than 100000 nM; with MARV it was 250 nM. Besides, the “SARS-CoV-2 antiviral activity, titer by plaque assay (FIG. 8A, words)” value in the data set on SARS-CoV-2 is on record as “essentially no activity”. The CC50 in the data set “in vitro [9]” was greater than 20000 nM; in “in vitro [2]” it was greater than 50000 nM. Also, the “SARS-CoV-2 activity in Calu-3 cells, expression of N protein” value in [3] is “no measurable SARS-CoV-2 activity”. Also, the “GI pathology in colon (FIG. 5C, words)” value in the data set with EBOV was “enhanced GI pathology noted in colon”. In addition, the “Kaplan-Meier survival, P treatment versus vehicle control (Log-rank Mantel-Cox test)” value with EBOV (po) is on record as 0.0565. In addition, the 90% effect level with EBOV (Makona) [13] (EC90) was put at 9710 nM.
For the molecule `CCC(CC)COC(=O)[C@H](C)N[P@](=O)(OC[C@H]1O[C@@](C#N)(c2ccc3c(N)ncnn23)[C@H](O)[C@@H]1O)Oc1ccccc1` [Remdesivir], the “Selectivity Index CC50/IC50” value in data set [1] is recorded as greater than 7.2; with MERS (EMC/2012), greater than 2.4; in the data set on SARS-CoV-1 (Toronto 2), greater than 4.0. Moreover, the IC50 in [1] amounted to 4150 nM; in the data set with MERS (EMC/2012) (setting [14]) it was 12500 nM; in the data set on SARS-CoV-1 (Toronto 2) it was 7420 nM; in data set [3] (read-out: Exp. 1 IC50) it was 1940 nM; in [3] (read-out: Exp. 2 IC50), 2150 nM. Also, the CC50 in “in vitro [2]” was greater than 30000 nM.
